The record followed here is patent US8383094B2, “Hepatitis C virus inhibitors” (Bristol-Myers Squibb Company, priority 2008, dated 2013).

The structures appear in SMILES notation.

One may read the EC50 as the concentration at which the effect is half-maximal.

For one experiment, the system named is HCV 1b genotype. In words: HCV Replicon assay (HCV-neo replicon cells, wild-type). Conditions: HCV 1b genotype replicon; read-out: 1b EC50 (in μM or range). The format is cell-based. For orientation: In antiviral work, replicon cells carry a viral genome segment that copies itself.
In the case of `CN1C[C@@H]2C[C@H]1CN2C(C(=O)N1CCC[C@H]1C(=O)Nc1ccc(C#Cc2ccc(NC(=O)[C@@H]3CCCN3C(=O)C(c3ccccc3)N3C[C@@H]4C[C@H]3CN4C)cc2)cc1)c1ccccc1` (stereo partly drawn) [VN18, (2S,2′S)-N,N′-(1,2-ethynediyldi-4,1-phenylene)bis(1-(((1S,4S)-5-methyl-2,5-diazabicyclo[2.2.1]hept-2-yl)(phenyl)acetyl)-2-pyrrolidinecarboxamide)], the concentration for a half-maximal effect (EC50) was found to be 130 nM. Consider `CN1C[C@@H]2C[C@H]1CN2C(C(=O)N1CCC[C@H]1C(=O)Nc1ccc(C#Cc2ccc(NC(=O)[C@@H]3CCCN3C(=O)C(c3ccccc3)N3C[C@@H]4C[C@H]3CN4C)cc2)cc1)c1ccccc1` (stereo partly drawn) [VN19, (2S,2′S)-N,N′-(1,2-ethynediyldi-4,1-phenylene)bis(1-(((1S,4S)-5-methyl-2,5-diazabicyclo[2.2.1]hept-2-yl)(phenyl)acetyl)-2-pyrrolidinecarboxamide)], for which the EC50 worked out at 5.2 nM.

Staying with this experiment, now noted: Hepatitis C virus, HCV 1b genotype replicon; range class A-D; read-out: 1b EC50 (in μM or range).
For `C[C@@](O)(C(=O)N1CCC[C@H]1C(=O)Nc1ccc(C#Cc2ccc(NC(=O)[C@@H]3CCCN3C(=O)[C@@](C)(O)c3ccccc3)cc2)cc1)c1ccccc1` [VN1, (2S,2′S)-N,N′-(1,2-ethynediyldi-4,1-phenylene)bis(1-((2S)-2-hydroxy-2-phenylpropanoyl)-2-pyrrolidinecarboxamide)], the EC50 was below 4.57 nM.

In the case of `C[C@](O)(C(=O)N1CCC[C@H]1C(=O)Nc1ccc(C#Cc2ccc(NC(=O)[C@@H]3CCCN3C(=O)[C@](C)(O)c3ccccc3)cc2)cc1)c1ccccc1` [VN2, (2S,2′S)-N,N′-(1,2-ethynediyldi-4,1-phenylene)bis(1-((2R)-2-hydroxy-2-phenylpropanoyl)-2-pyrrolidinecarboxamide)], the half-maximal effective concentration (EC50) was below 4.57 nM. `CC(C)(C(=O)N1CCC[C@H]1C(=O)Nc1ccc(C#Cc2ccc(NC(=O)[C@@H]3CCCN3C(=O)C(C)(C)c3ccccc3)cc2)cc1)c1ccccc1` [VN3, (2S,2′S)-N,N′-(1,2-ethynediyldi-4,1-phenylene)bis(1-(2-methyl-2-phenylpropanoyl)-2-pyrrolidinecarboxamide)]: the EC50 fell in the range of 4.57 to 99 nM. With `O=C(Nc1ccc(C#Cc2ccc(NC(=O)[C@@H]3CCCN3C(=O)C3(c4ccccc4)CC3)cc2)cc1)[C@@H]1CCCN1C(=O)C1(c2ccccc2)CC1` [VN4, (2S,2′S)-N,N′-(1,2-ethynediyldi-4,1-phenylene)bis(1-((1-phenylcyclopropyl)carbonyl)-2-pyrrolidinecarboxamide)], the EC50 was below 4.57 nM. `O=C(Nc1ccc(C#Cc2ccc(NC(=O)[C@@H]3CCCN3C(=O)C3(c4ccccc4)CCCC3)cc2)cc1)[C@@H]1CCCN1C(=O)C1(c2ccccc2)CCCC1` [VN5, (2S,2′S)-N,N′-(1,2-ethynediyldi-4,1-phenylene)bis(1-((1-phenylcyclopentyl)carbonyl)-2-pyrrolidinecarboxamide)]: the EC50 lay within 4.57 to 99 nM.

`CC[C@H](C(=O)N1CCC[C@H]1C(=O)Nc1ccc(C#Cc2ccc(NC(=O)[C@@H]3CCCN3C(=O)[C@@H](CC)c3ccccc3)cc2)cc1)c1ccccc1` [VN6, (2S,2′S)-N,N′-(1,2-ethynediyldi-4,1-phenylene)bis(1-((2S)-2-phenylbutanoyl)-2-pyrrolidinecarboxamide)]: the EC50 was 4.57 to 99 nM. Same read-out and setting: the value for `CC[C@@H](C(=O)N1CCC[C@H]1C(=O)Nc1ccc(C#Cc2ccc(NC(=O)[C@@H]3CCCN3C(=O)[C@H](CC)c3ccccc3)cc2)cc1)c1ccccc1` [VN7, (2S,2′S)-N,N′-(1,2-ethynediyldi-4,1-phenylene)bis(1-((2R)-2-phenylbutanoyl)-2-pyrrolidinecarboxamide)] was below 4.57 nM; that for `O=C(Nc1ccc(C#Cc2ccc(NC(=O)[C@@H]3CCCN3C(=O)C(F)c3ccccc3)cc2)cc1)[C@@H]1CCCN1C(=O)C(F)c1ccccc1` (stereo partly drawn) [VN8, (2S,2′S)-N,N′-(1,2-ethynediyldi-4,1-phenylene)bis(1-(fluoro(phenyl)acetyl)-2-pyrrolidinecarboxamide)] was below 4.57 nM; that for `C[C@@H](C(=O)N1CCC[C@H]1C(=O)Nc1ccc(C#Cc2ccc(NC(=O)[C@@H]3CCCN3C(=O)[C@H](C)c3ccccc3)cc2)cc1)c1ccccc1` [VN9, (2S,2′S)-N,N′-(1,2-ethynediyldi-4,1-phenylene)bis(1-((2R)-2-phenylpropanoyl)-2-pyrrolidinecarboxamide)] was below 4.57 nM. The same measure, in the same setting: the value for `CCC(O)(C(=O)N1CCC[C@H]1C(=O)Nc1ccc(C#Cc2ccc(NC(=O)[C@@H]3CCCN3C(=O)C(O)(CC)c3ccccc3)cc2)cc1)c1ccccc1` (stereo partly drawn) [VN10, (2S,2′S)-N,N′-(1,2-ethynediyldi-4,1-phenylene)bis(1-(2-hydroxy-2-phenylbutanoyl)-2-pyrrolidinecarboxamide)] was below 4.57 nM. Still for that read-out and setting: the value for `O=C(Nc1ccc(C#Cc2ccc(NC(=O)[C@@H]3CCCN3C(=O)[C@@H](c3ccccc3)N3CCCC3)cc2)cc1)[C@@H]1CCCN1C(=O)[C@@H](c1ccccc1)N1CCCC1` [VN12, (2S,2′S)-N,N′-(1,2-ethynediyldi-4,1-phenylene)bis(1-((2R)-2-phenyl-2-(1-pyrrolidinyl)acetyl)-2-pyrrolidinecarboxamide)] was below 4.57 nM. As for `O=C(Nc1ccc(C#Cc2ccc(NC(=O)[C@@H]3CCCN3C(=O)[C@@H](c3ccccc3)N3CCOCC3)cc2)cc1)[C@@H]1CCCN1C(=O)[C@@H](c1ccccc1)N1CCOCC1` [VN13, (2S,2′S)-N,N′-(1,2-ethynediyldi-4,1-phenylene)bis(1-((2R)-2-(4-morpholinyl)-2-phenylacetyl)-2-pyrrolidinecarboxamide)], the EC50 was below 4.57 nM.

With `CC(=O)N[C@H](C)C(=O)N1CCC[C@H]1C(=O)Nc1ccc(C#Cc2ccc(NC(=O)[C@@H]3CCCN3C(=O)[C@@H](C)NC(C)=O)cc2)cc1` [VN14, (2S,2′S)-N,N′-(1,2-ethynediyldi-4,1-phenylene)bis(1-((2R)-2-acetamidopropanoyl)-2-pyrrolidinecarboxamide)], the EC50 lay in the range of 4.57 to 99 nM. Take `CC(=O)N[C@@H](C)C(=O)N1CCC[C@H]1C(=O)Nc1ccc(C#Cc2ccc(NC(=O)[C@@H]3CCCN3C(=O)[C@H](C)NC(C)=O)cc2)cc1` [VN15, (2S,2′S)-N,N′-(1,2-ethynediyldi-4,1-phenylene)bis(1-((2S)-2-acetamidopropanoyl)-2-pyrrolidinecarboxamide)]: the EC50 lay in the range of 100 to 999 nM. On the same count and under the same terms, the value for `CN(C)C1(C(=O)N2CCC[C@H]2C(=O)Nc2ccc(C#Cc3ccc(NC(=O)[C@@H]4CCCN4C(=O)C4(N(C)C)Cc5ccccc5C4)cc3)cc2)Cc2ccccc2C1` [VN16, (2S,2′S)-N,N′-(1,2-ethynediyldi-4,1-phenylene)bis(1-((2-(dimethylamino)-2,3-dihydro-1H-inden-2-yl)carbonyl)-2-pyrrolidinecarboxamide)] was 4.57 to 99 nM; that for `O=C(Nc1ccc(C#Cc2ccc(NC(=O)[C@@H]3CCCN3C(=O)C(c3ccccc3)N3CCC(O)CC3)cc2)cc1)[C@@H]1CCCN1C(=O)C(c1ccccc1)N1CCC(O)CC1` (stereo partly drawn) [VN20, (2S,2′S)-N,N′-(1,2-ethynediyldi-4,1-phenylene)bis(1-((4-hydroxy-1-piperidinyl)(phenyl)acetyl)-2-pyrrolidinecarboxamide)] was 4.57 to 99 nM. On to `CN(C)[C@H](C(=O)N1CCC[C@H]1C(=O)Nc1ccc(C#Cc2ccc(NC(=O)[C@@H]3CCCN3C(=O)[C@H](c3ccccc3)N(C)C)cc2)cc1)c1ccccc1` [VN22, (2S,2′S)-N,N′-(1,2-ethynediyldi-4,1-phenylene)bis(1-((2S)-2-(dimethylamino)-2-phenylacetyl)-2-pyrrolidinecarboxamide)], for which the EC50 was below 4.57 nM.

`CC(C)(C)OC(=O)N[C@H](C(=O)N1CCC[C@H]1C(=O)Nc1ccc(C#Cc2ccc(NC(=O)[C@@H]3CCCN3C(=O)[C@@H](NC(=O)OC(C)(C)C)c3ccccc3)cc2)cc1)c1ccccc1` [VN22, Step a, di-tert-butyl(1,2-ethynediylbis(4,1-phenylenecarbamoyl(2S)-2,1-pyrrolidinediyl((1S)-2-oxo-1-phenyl-2,1-ethanediyl)))biscarbamate]: the half-maximal effective concentration (EC50) is below 4.57 nM.

As to `CN(C)[C@@H](C(=O)N1CCC[C@H]1C(=O)Nc1ccc(C#Cc2ccc(NC(=O)[C@@H]3CCCN3C(=O)[C@@H](c3ccccc3)N(C)C)cc2)cc1)c1ccccc1` [VN23, (2S,2′S)-N,N′-(1,2-ethynediyldi-4,1-phenylene)bis(1-((2R)-2-(dimethylamino)-2-phenylacetyl)-2-pyrrolidinecarboxamide)], the EC50 was below 4.57 nM.

As for `CC(C)(C)OC(=O)N[C@@H](C(=O)N1CCC[C@H]1C(=O)Nc1ccc(C#Cc2ccc(NC(=O)[C@@H]3CCCN3C(=O)[C@H](NC(=O)OC(C)(C)C)c3ccccc3)cc2)cc1)c1ccccc1` [VN23, Step a, di-tert-butyl(1,2-ethynediylbis(4,1-phenylenecarbamoyl(2S)-2,1-pyrrolidinediyl((1R)-2-oxo-1-phenyl-2,1-ethanediyl)))biscarbamate], the EC50 was below 4.57 nM.

The experiment is the same for the next values; noted with them: Hepatitis C virus, HCV 1b genotype replicon; read-out: 1b EC50 (in μM or range).
With `O=CN[C@@H](C(=O)N1CCC[C@H]1C(=O)Nc1ccc(C#Cc2ccc(NC(=O)[C@@H]3CCCN3C(=O)[C@H](NC=O)c3ccccc3)cc2)cc1)c1ccccc1` [VN11, (2S,2′S)-N,N′-(1,2-ethynediyldi-4,1-phenylene)bis(1-((2R)-2-formamido-2-phenylacetyl)-2-pyrrolidinecarboxamide)], the EC50 was 0.01 nM. Turning to `O=C(Nc1ccc(C#Cc2ccc(NC(=O)[C@@H]3CCCN3C(=O)C(c3ccccc3)N3CCC(O)CC3)cc2)cc1)[C@@H]1CCCN1C(=O)C(c1ccccc1)N1CCC(O)CC1` (stereo partly drawn) [VN21, (2S,2′S)-N,N′-(1,2-ethynediyldi-4,1-phenylene)bis(1-((4-hydroxy-1-piperidinyl)(phenyl)acetyl)-2-pyrrolidinecarboxamide)], the EC50 is 0.035 nM. `CCC(=O)N[C@@H](C(=O)N1CCC[C@H]1C(=O)Nc1ccc(C#Cc2ccc(NC(=O)[C@@H]3CCCN3C(=O)[C@H](NC(=O)CC)c3ccccc3)cc2)cc1)c1ccccc1` [VN24, (2S,2′S)-N,N′-(1,2-ethynediyldi-4,1-phenylene)bis(1-((2R)-2-phenyl-2-(propionylamino)acetyl)-2-pyrrolidinecarboxamide)]: the EC50 was above 10000 nM.
